Results as given in ChEMBL document CHEMBL5579852, “Promising anti-proliferative indolic benzenesulfonamides alter mechanisms with sulfonamide nitrogen substituents” (Eur J Med Chem, 2024).

How the values were obtained:
[1] = system: HeLa; assay: Antiproliferative activity against human HeLa cells assessed as reduction in cell viability incubated for 72 hrs by MTT assay; assay type: functional, cell-based
[2] = Antiproliferative activity against human Hermes 3C cells assessed as reduction in cell viability incubated for 72 hrs by CelltiterGlo luminescent assay; assay type: toxicity, cell-based
[3] = Antiproliferative activity against human HEK293 cells assessed as reduction in cell viability incubated for 72 hrs by CelltiterGlo luminescent assay; assay type: toxicity, cell-based

| IC50 [1] | Compound | other results |
| --- | --- | --- |
| > 1000 nM | COc1cc(S(=O)(=O)N(CCCCCBr)c2ccc3c(ccn3C)c2)cc(OC)c1OC |  |
| > 1000 nM | COc1cc(S(=O)(=O)N(CCCN2CCOCC2)c2ccc3c(ccn3C)c2)cc(OC)c1OC |  |
| > 1000 nM | COc1cc(S(=O)(=O)N(CCCCC(=O)O)c2ccc3c(ccn3C)c2)cc(OC)c1OC |  |
| 79.8 nM | C#CCN(c1ccc2c(ccn2C)c1)S(=O)(=O)c1cc(OC)c(OC)c(OC)c1 |  |
| > 1000 nM | COc1cc(S(=O)(=O)N(CCN2CCOCC2)c2ccc3c(ccn3C)c2)cc(OC)c1OC |  |
| 464 nM | COc1cc(S(=O)(=O)N(Cc2ccc(N)cc2)c2ccc3c(ccn3C)c2)cc(OC)c1OC |  |
| > 1000 nM | COc1cc(S(=O)(=O)N(Cc2cccc(N)c2)c2ccc3c(ccn3C)c2)cc(OC)c1OC |  |
| > 1000 nM | COc1cc(S(=O)(=O)N(CCCCBr)c2ccc3c(ccn3C)c2)cc(OC)c1OC |  |
| > 1000 nM | COc1cc(S(=O)(=O)N(C)c2ccc3c(c2)c(C(=O)O)cn3C)cc(OC)c1OC |  |
| > 1000 nM | CCOC(=O)CN(c1ccc2c(ccn2C)c1)S(=O)(=O)c1cc(OC)c(OC)c(OC)c1 |  |
| > 1000 nM | COc1cc(S(=O)(=O)N(CCCCCCBr)c2ccc3c(ccn3C)c2)cc(OC)c1OC |  |
| > 1000 nM | COc1cc(S(=O)(=O)N(CCCBr)c2ccc3c(ccn3C)c2)cc(OC)c1OC |  |
| > 1000 nM | COc1cc(S(=O)(=O)N(CCCC(=O)O)c2ccc3c(ccn3C)c2)cc(OC)c1OC |  |
| > 1000 nM | COc1cc(S(=O)(=O)N(CCCCN2CCOCC2)c2ccc3c(ccn3C)c2)cc(OC)c1OC |  |
| 114 nM | COc1cc(S(=O)(=O)N(C)c2ccc3c(c2)C=CC3CC#N)cc(OC)c1OC (stereo unspecified) |  |
| > 1000 nM | COc1cc(S(=O)(=O)N(CCCCCCN2CCOCC2)c2ccc3c(ccn3C)c2)cc(OC)c1OC |  |
| > 1000 nM | CCOC(=O)CCCCN(c1ccc2c(ccn2C)c1)S(=O)(=O)c1cc(OC)c(OC)c(OC)c1 |  |
| 2560 nM | COc1cc(S(=O)(=O)Nc2ccc3c(c2)C=CC3CC#N)cc(OC)c1OC (stereo unspecified) |  |
| > 1000 nM | CCOC(=O)CCCN(c1ccc2c(ccn2C)c1)S(=O)(=O)c1cc(OC)c(OC)c(OC)c1 |  |
| 974 nM | COc1cc(S(=O)(=O)N(CC#N)c2ccc3c(c2)C=CC3CC#N)cc(OC)c1OC (stereo unspecified) |  |
| > 1000 nM | COc1cc(S(=O)(=O)N(Cc2cccc([N+](=O)[O-])c2)c2ccc3c(ccn3C)c2)cc(OC)c1OC |  |
| > 1000 nM | COc1cc(S(=O)(=O)N(Cc2ccc([N+](=O)[O-])cc2)c2ccc3c(ccn3C)c2)cc(OC)c1OC |  |
|  | CC(=O)O[C@H]1C(=O)[C@@]2(C)[C@H]([C@H](OC(=O)c3ccccc3)[C@]3(O)C[C@H](OC(=O)[C@H](O)[C@@H](NC(=O)c4ccccc4)c4ccccc4)C(C)=C1C3(C)C)[C@]1(OC(C)=O)CO[C@@H]1C[C@@H]2O [PACLITAXEL] | IC50 at 72 h [2]: 1 nM; IC50 at 72 h [3]: 26.8 nM |
| 275 nM | COc1cc(S(=O)(=O)N(CC(N)=O)c2ccc3c(ccn3C)c2)cc(OC)c1OC |  |
| > 1000 nM | COc1cc(S(=O)(=O)N(Cc2ccccc2)c2ccc3c(ccn3C)c2)cc(OC)c1OC |  |
